One test deals with GSTT1-/- INS+ cells. In words: Inhibition curve on INS+ cells derived from GSTT1-/- H1 hESCs. The format is cell-based, human. The following applies: H1 hESC-derived, n = 3; read-out: IC50 for GSTT1-/--1 INS+ cells. On the procedure:
hESCs-derived INS^+ cells, MSCs[43], neurons, and hepatocytes[44] were derived based on the reported protocols and re-plated on 96-well plates with Accutase digestion. Cardiomyocytes (CMs) were differentiated from H9-MYH6: mCherry reporter line, based on the reported protocol. After overnight incubation, cells were treated with DMSO or different doses of hit compounds for 4 days. After fixation, the cells were stained with markers for each cell type. DAPI was used to stain cell nuclei. Plates were analyzed by ImageXpress^MICRO Automated High-Content Analysis System.
CRISPR sgRNA sequences were designed using the web resources available at http://www.genome-engineering.org/. The target sequences are listed in Supplementary Table 2. Each target sequence was cloned into the pX330-U6-Chimeric_BB-CBh-hSpCas9 vector (Addgene plasmid #42230) to make the gene targeting constructs. To knockout the target genes, two sgRNAs were validated using the surveyor assay in 293T cells, and we chose 1 sgRNA-construct plasmid for further experiments. After validation, H1 or INS^GFP/W HES3 cells were dissociated using Accutase (STEM CELL) and electroporated (8 × 10^5 cells per sample) with 4 μg sgRNA-construct plasmids using Human Stem Cell Nucleofector^TM solution (Lonza) following manufacturer’s instructions. […] A portion of the cells was analyzed by DNA sequencing. […]

A further test relates to MIN6 cells. The test is described as follows: Autophagy marker LC3-II western blotting. The format is cell-based, mouse. Conditions: 0.8 µM or 1.6 µM propargite. The source says:
To extract intracellular protein, cells were placed on ice, washed twice with ice-cold PBS and lysed immediately with RIPA buffer (Life Technologies, 89900) supplemented with a protease inhibitor cocktail (Life Technologies, 78440). Cell lysates were then sonicated and the soluble fraction was collected after centrifugation. Protein amount was quantified by the BCA protein assay (Life Technologies, 23227). To extract extracellular HMGB1, tissue culture media were collected and concentrated using Afyon SDS-PAGE sample preparation kit (advansta, K-02101-025). 20 μg of total protein for each sample was mixed with loading buffer and incubated for 5 min at 95 °C before being loaded into NuPAGE® Novex® 4–12% […] Protein Gels (Life Technologies, NP0321BOX) for electrophoresis. Separated proteins were transferred to a PVDF membrane (Millipore, IPSN07852) after electrophoresis. […] ECL signals were developed and detected using the SuperSignal™ West Femto Maximum Sensitivity Substrate (Life Technologies, 34094) and a C-DiGit Chemiluminescent Western Blot Scanner (LI-COR). […]
cells. (b, c) Flow cytometry analysis (b) and quantification (c) of the percentage of […]
Etoposide was used as a positive control. Values presented as mean±S.D. (d, e) Immunocytochemistry analysis (d) and quantification (e) of the percentage of Active Caspase-3+ cells in 1.6 µM propargite treated MIN6 cells (n=3). […]
In general terms: A western blot detects proteins with antibodies after separation by electrophoresis.

The subject of a further test is INS-GFP+ cells. The test is described as follows: RNA-seq of INS-GFP+ cells. Format: cell-based, human. Conditions: 1.6 µM propargite-treated INS-GFP+ cells. The source says:
The INS-GFP^+ cells were sorted and RNA from the sorted cells was extracted with Absolutely RNA Nanoprep kit (Agilent Technologies, 400753). The RNA quality was validated with a bioanalyzer (Agilent). The cDNA libraries were synthesized using the TruSeq RNA Sample Preparation kit (Illumina) and sequenced in single-read with the HiSeq2000/1000 sequencer (Illumina) at Weill Cornell Genomics Resources Core Facility. The reads were aligned to the human hg19 reference genome with Tophat2[48]. Gene expression data were analyzed with Cufflinks[49]. To generate heat maps displaying the differential gene expression patterns of different samples, the RPKM values were normalized per gene over all samples. The heat maps were then generated by Heatmap.2 in the R plots package. David functional annotation tool[50] was used for gene ontology analysis and Ingenuity Pathway Analysis tool was used for pathway analysis.

Some results are limits rather than exact numbers.

For the substance “2-(4-tert-butylphenoxy)-cyclohexyl prop-2-yne-1-sulfonate [propargite]”, the IC50 in the test on GSTT1-/- INS+ cells was 1170 nM. In the test with MIN6 cells, the “relative levels of LC3-II” value is given as “no significant increase”. Besides, the “fold-change of upregulated DNA damage genes (DDIT3, GADD45A)” value with INS-GFP+ cells is recorded as over 3.

The values above are taken from paper PMC6240096, “A hPSC-based platform to discover gene-environment interactions that impact human β-cell and dopamine neuron survival” (Nature Communications, 2018).
